From patent US10273228B2, “Hepatitis B viral assembly effectors” (Indiana University Research and Technology Corporation, priority 2015, dated 2019)

What was measured:
AD38 cells = test: AD38 viability normalized to DMSO control; type: cell-based; details: 10 μM compound, vs DMSO control; Table 9
Method: AD38 cells were then re-suspended with 10 mL of treatment medium and counted. Wells of a collagen coated 96-well NUNC microtiter plate were seeded at 50,000/well in 180 μL of treatment medium, and 20 μL of either 10% DMSO (Control) or a 10× solution of test compound in 10% DMSO in treatment media was added for a final compound concentration 1, 3, or 10 μM (1.0% final [DMSO]) and plates were incubated for 6 days at 37° C.

[1] = tested on: HBV viral load, AD38 cells; test: Activity of test compounds on viral production from AD38 cells (viral load by quantitative PCR of the core sequence in supernatant); type: cell-based, Hepatitis B virus; details: 10 μM compound, 6 days at 37° C., vs DMSO control wells, Table 9; for activity at 10 µM: Hepatitis B virus, 144 h, read-out: AD38 Viral Load (CpAM/DMSO %) at 10 μM
Procedure, shortened: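 Cells seeded at 50,000/well on collagen-coated plates and exposed for 6 days at 37 °C to compound at 1, 3 or 10 μM final (1.0% DMSO). Supernatant viral DNA measured by TaqMan qPCR of the core sequence against known standards, compared with DMSO control wells.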

SMILES | AD38 Viability Normalized Result (CPAM/DMSO %) at 10 μM (AD38 cells) | activity at 10 µM [1] | AD38 Viral Load (CpAM/DMSO %) at 10 μM [1]
Cc1cc(Nc2ccc(F)cc2)nc(N2CCN(S(=O)(=O)c3ccc(OCCN4CCOCC4)cc3)CC2)n1 [Compound 1383, N-(4-fluorophenyl)-6-methyl-2-(4-((4-(2-morpholinoethoxy)phenyl)sulfonyl)piperazin-1-yl) pyrimidin-4-amine] | 94% | 14% | 
Cc1cc(Nc2ccc(F)cc2)nc(N2CCN(S(=O)(=O)c3ccc(OCC(=O)O)cc3)CC2)n1 [Compound 1384, 2-(4-((4-(4-((4-fluorophenyl)amino)-6-methylpyrimidin-2-yl)piperazin-1-yl)sulfonyl)phenoxy) acetic acid] | 91% | 122% | 
CCOC(=O)COc1ccc(S(=O)(=O)N2CCN(c3nc(C)cc(Nc4ccc(F)cc4)n3)CC2)cc1 [Compound 1385, ethyl 2-(4-((4-(4-((4-fluorophenyl)amino)-6-methylpyrimidin-2-yl)piperazin-1-yl)sulfonyl)phenoxy) acetate] | 94% | 105% | 
COC(=O)c1ccc(S(=O)(=O)N2CCN(c3nc(Nc4ccc(F)cc4)cc(C(F)(F)F)n3)CC2)cc1 [Compound 1386] | 118% | 23% | 
COC(=O)CCCOc1ccc(S(=O)(=O)N2CCN(c3nc(C)cc(Nc4ccc(F)cc4)n3)CC2)cc1 [Compound 1387, methyl 4-(4-((4-(4-((4-fluorophenyl)amino)-6-methylpyrimidin-2-yl)piperazin-1-yl)sulfonyl)phenoxy) butanoate] | 107% | 19% | 
O=C(O)c1ccc(S(=O)(=O)N2CCN(c3nc(Nc4ccc(F)cc4)cc(C(F)(F)F)n3)CC2)cc1 [Compound 1388, 4-((4-(4-((4-fluorophenyl)amino)-6-(trifluoromethyl)pyrimidin-2-yl)piperazin-1-yl)sulfonyl) benzoic acid] | 106% | 15% | 
CN(C)CCOc1ccc(S(=O)(=O)N2CCN(c3nc(Nc4ccc(F)cc4)cc(C(F)(F)F)n3)CC2)cc1 [Compound 1389, 2-(4-((4-(2-(dimethylamino)ethoxy)phenyl)sulfonyl)piperazin-1-yl)-N-(4-fluorophenyl)-6-(trifluoromethyl) pyrimidin-4-amine] | 0% | 2% | 
O=S(=O)(c1ccc(OCCN2CCOCC2)cc1)N1CCN(c2nc(Nc3ccc(F)cc3)cc(C(F)(F)F)n2)CC1 [Compound 1390, N-(4-fluorophenyl)-2-(4-((4-(2-morpholinoethoxy)phenyl)sulfonyl)piperazin-1-yl)-6-(trifluoromethyl) pyrimidin-4-amine] | 104% | 1% | 
O=S(=O)(c1ccc(C(F)(F)F)cc1)N1CCN(c2nc(Nc3ccc(F)cc3)cc(C(F)(F)F)n2)CC1 [Compound 1391] | 88% | 16% | 
Cc1cc(Nc2ccc(F)cc2)nc(N2CCN(S(=O)(=O)c3ccc(CC(=O)O)cc3)CC2)n1 [Compound 1392, 2-(4-((4-(4-((4-fluorophenyl)amino)-6-methylpyrimidin-2-yl)piperazin-1-yl)sulfonyl)phenyl) acetic acid] | 99% | 69% | 
COC(=O)Cc1ccc(S(=O)(=O)N2CCN(c3nc(C)cc(Nc4ccc(F)cc4)n3)CC2)cc1 [Compound 1393, methyl 2-(4-((4-(4-((4-fluorophenyl)amino)-6-methylpyrimidin-2-yl)piperazin-1-yl)sulfonyl)phenyl) acetate] | 102% |  | 79%
Cc1cc(Nc2ccc(F)cc2)nc(N2CCN(S(=O)(=O)c3ccc(OCCCC(=O)O)cc3)CC2)n1 [Compound 1394, 4-(4-((4-(4-((4-fluorophenyl)amino)-6-methylpyrimidin-2-yl)piperazin-1-yl)sulfonyl)phenoxy) butanoic acid] | 79% | 32% | 
Cc1cc(Nc2ccc(F)cc2)nc(N2CCN(S(=O)(=O)c3ccc(O[C@H](C)C(=O)O)cc3)CC2)n1 [Compound 1395, (R)-2-(4-((4-(4-((4-fluorophenyl)amino)-6-methylpyrimidin-2-yl)piperazin-1-yl)sulfonyl)phenoxy) propanoic acid] | 98% | 42% | 
Cc1cc(Nc2ccc(F)cc2)nc(N2CCN(S(=O)(=O)c3ccc(O[C@@H](C)C(=O)O)cc3)CC2)n1 [Compound 1396, (S)-2-(4-((4-(4-((4-fluorophenyl)amino)-6-methylpyrimidin-2-yl)piperazin-1-yl)sulfonyl)phenoxy) propanoic acid] | 100% | 70% | 
COC(=O)CCCOc1ccc(S(=O)(=O)N2CCN(c3nc(Nc4ccc(F)cc4)cc(C(F)(F)F)n3)CC2)cc1 [Compound 1397, methyl 4-(4-((4-(4-((4-fluorophenyl)amino)-6-(trifluoromethyl)pyrimidin-2-yl)piperazin-1-yl)sulfonyl)phenoxy) butanoate] | 33% |  | 5%
O=C(O)CCCOc1ccc(S(=O)(=O)N2CCN(c3nc(Nc4ccc(F)cc4)cc(C(F)(F)F)n3)CC2)cc1 [Compound 1398, 4-(4-((4-(4-((4-fluorophenyl)amino)-6-(trifluoromethyl)pyrimidin-2-yl)piperazin-1-yl)sulfonyl)phenoxy) butanoic acid] | 0% | 4% | 
O=C(O)COc1ccc(S(=O)(=O)N2CCN(c3nc(Nc4ccc(F)cc4)cc(C(F)(F)F)n3)CC2)cc1 [Compound 1399, 2-(4-((4-(4-((4-fluorophenyl)amino)-6-(trifluoromethyl)pyrimidin-2-yl)piperazin-1-yl)sulfonyl)phenoxy) acetic acid] | 93% | 43% | 
CCCOc1ccc(S(=O)(=O)N2CCN(c3nc(Nc4ccc(F)cc4)cc(C(F)(F)F)n3)CC2)cc1 [Compound 1400] | 93% | 73% | 
CCCCCOc1ccc(S(=O)(=O)N2CCN(c3nc(Nc4ccc(F)cc4)cc(C(F)(F)F)n3)CC2)cc1 [Compound 1401] | 97% | 42% | 
COCCOCCOc1ccc(S(=O)(=O)N2CCN(c3nc(Nc4ccc(F)cc4)cc(C(F)(F)F)n3)CC2)cc1 [Compound 1402] | 97% | 12% | 
Cc1cc(Nc2ccc(F)cc2)nc(N2CCN(S(=O)(=O)c3ccc(OC(C)(C)C(=O)O)cc3)CC2)n1 [Compound 1403, 2-(4-((4-(4-((4-fluorophenyl)amino)-6-methylpyrimidin-2-yl)piperazin-1-yl)sulfonyl)phenoxy)-2-methylpropanoic acid] | 100% | 83% | 
CCOC(=O)C(C)(C)Oc1ccc(S(=O)(=O)N2CCN(c3nc(C)cc(Nc4ccc(F)cc4)n3)CC2)cc1 [Compound 1404, ethyl 2-(4-((4-(4-((4-fluorophenyl)amino)-6-methylpyrimidin-2-yl)piperazin-1-yl)sulfonyl)phenoxy)-2-methylpropanoate] | 96% | 90% | 
CC(C)(Oc1ccc(S(=O)(=O)N2CCN(c3nc(Nc4ccc(F)cc4)cc(C(F)(F)F)n3)CC2)cc1)C(=O)O [Compound 1405, 2-(4-((4-(4-((4-fluorophenyl)amino)-6-(trifluoromethyl)pyrimidin-2-yl)piperazin-1-yl)sulfonyl)phenoxy)-2-methylpropanoic acid] | 84% | 28% | 
CCOC(=O)C(C)(C)Oc1ccc(S(=O)(=O)N2CCN(c3nc(Nc4ccc(F)cc4)cc(C(F)(F)F)n3)CC2)cc1 [Compound 1406, ethyl 2-(4-((4-(4-((4-fluorophenyl)amino)-6-(trifluoromethyl)pyrimidin-2-yl)piperazin-1-yl)sulfonyl)phenoxy)-2-methylpropanoate] | 98% | 63% | 
COCCOc1ccc(S(=O)(=O)N2CCN(c3nc(Nc4ccc(F)cc4)cc(C(F)(F)F)n3)CC2)cc1 [Compound 1407] | 91% | 12% | 
COC(=O)Cc1ccc(S(=O)(=O)N2CCN(c3nc(Nc4ccc(F)cc4)cc(C(F)(F)F)n3)CC2)cc1 [Compound 1408, methyl 2-(4-((4-(4-((4-fluorophenyl)amino)-6-(trifluoromethyl)pyrimidin-2-yl)piperazin-1-yl)sulfonyl)phenyl) acetate] | 107% |  | 8%
C[C@@H](Oc1ccc(S(=O)(=O)N2CCN(c3nc(Nc4ccc(F)cc4)cc(C(F)(F)F)n3)CC2)cc1)C(=O)O [Compound 1409, (R)-2-(4-((4-(4-((4-fluorophenyl)amino)-6-(trifluoromethyl)pyrimidin-2-yl)piperazin-1-yl)sulfonyl)phenoxy) propanoic acid] | 108% | 59% | 
